The values below come from US20090111801A1, “SUBSTITUTED PYRAZINONE DERIVATIVES FOR USE AS A MEDICINE” (Janssen Pharmaceutica N.V., priority 2006, published 2009).

The target of one test is T1, hα2C receptor (Homo sapiens, UniProt P18825).
T1 construct: expressed in transfected cells; host or cells: CHO cells, stably transfected; membrane preparation
T1 sequence (P18825 1-462): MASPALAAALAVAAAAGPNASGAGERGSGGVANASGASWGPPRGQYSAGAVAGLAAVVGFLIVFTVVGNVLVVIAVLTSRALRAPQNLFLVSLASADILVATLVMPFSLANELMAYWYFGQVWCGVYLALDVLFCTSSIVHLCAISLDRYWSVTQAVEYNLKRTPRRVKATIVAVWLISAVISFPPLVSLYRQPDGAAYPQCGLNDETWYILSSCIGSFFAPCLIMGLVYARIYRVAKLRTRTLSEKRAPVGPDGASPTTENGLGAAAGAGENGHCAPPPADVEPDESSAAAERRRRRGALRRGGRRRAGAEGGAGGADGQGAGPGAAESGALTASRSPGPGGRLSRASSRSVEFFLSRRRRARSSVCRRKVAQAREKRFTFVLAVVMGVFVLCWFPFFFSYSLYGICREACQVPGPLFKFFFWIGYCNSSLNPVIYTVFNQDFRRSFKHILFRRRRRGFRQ
Description: Radioligand binding experiment for α2C-adrenoceptor ([3H]raulwolscine, CHO cell membranes). The conditions noted are these: [3H]raulwolscine binding, read-out: h-α2C pIC50 (converted).

The next test concerns the target T2, hα2A receptor (Homo sapiens, UniProt P08913).
T2 construct: expressed in transfected cells; host or cells: CHO cells, stably transfected; membrane preparation
T2 sequence (P08913 1-465): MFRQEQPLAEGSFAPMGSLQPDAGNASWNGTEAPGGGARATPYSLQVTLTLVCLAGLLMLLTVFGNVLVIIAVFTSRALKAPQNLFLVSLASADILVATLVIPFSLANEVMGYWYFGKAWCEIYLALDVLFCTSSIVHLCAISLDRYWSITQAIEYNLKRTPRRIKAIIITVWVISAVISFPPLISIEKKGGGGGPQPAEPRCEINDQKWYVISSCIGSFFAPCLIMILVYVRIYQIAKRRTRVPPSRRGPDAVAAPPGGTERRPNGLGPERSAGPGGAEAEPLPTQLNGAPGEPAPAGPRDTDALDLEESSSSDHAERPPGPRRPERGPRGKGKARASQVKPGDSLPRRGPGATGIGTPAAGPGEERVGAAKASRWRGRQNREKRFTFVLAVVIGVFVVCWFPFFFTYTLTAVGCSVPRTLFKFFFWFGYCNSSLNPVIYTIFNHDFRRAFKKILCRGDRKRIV
Description: Radioligand binding experiment for α2A-adrenoceptor ([3H]raulwolscine, CHO cell membranes). The conditions noted are these: [3H]raulwolscine binding, read-out: h-α2A pIC50 (converted).

For a further test, the target named is T3, 5HT-Transporter (Homo sapiens, UniProt P31645).
T3 construct: Human platelet membranes (Oceanix Biosciences Corporation, Hanover, Md., USA) were thawed; tissue Oceanix Biosciences Corporation, Hanover, Md., USA; host or cells: human platelet membranes
Description: Binding experiment for the 5HT-transporter ([3H]paroxetine, human platelet membranes). The conditions noted are these: [3H]paroxetine 0.5 nM, read-out: h-5HTT pIC50 (converted). Put shortly:
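Filter-bound radioactivity from human platelet membranes incubated with [3H]paroxetine and test compound (buffer Tris-HCl 50 mM, 120 mM NaCl, 5 mM KCl) was counted.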

T3 sequence (P31645 whole entry): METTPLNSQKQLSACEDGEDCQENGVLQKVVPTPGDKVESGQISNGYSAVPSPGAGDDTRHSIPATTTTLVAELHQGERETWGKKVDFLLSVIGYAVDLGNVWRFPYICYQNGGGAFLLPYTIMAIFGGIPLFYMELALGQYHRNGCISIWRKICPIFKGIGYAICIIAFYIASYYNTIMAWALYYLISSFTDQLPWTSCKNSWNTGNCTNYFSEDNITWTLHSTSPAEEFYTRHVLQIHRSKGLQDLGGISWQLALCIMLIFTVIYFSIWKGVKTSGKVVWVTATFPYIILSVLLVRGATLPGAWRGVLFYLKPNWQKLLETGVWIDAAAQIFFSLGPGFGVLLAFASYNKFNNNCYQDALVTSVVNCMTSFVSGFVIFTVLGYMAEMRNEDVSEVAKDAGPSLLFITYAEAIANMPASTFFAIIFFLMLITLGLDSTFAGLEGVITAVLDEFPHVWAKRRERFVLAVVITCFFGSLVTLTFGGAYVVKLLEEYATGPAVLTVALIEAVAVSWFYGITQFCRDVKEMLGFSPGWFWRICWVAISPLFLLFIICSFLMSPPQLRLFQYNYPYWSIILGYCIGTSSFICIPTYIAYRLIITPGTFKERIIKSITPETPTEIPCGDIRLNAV

In the case of `CC(=O)c1ccc(-n2ccnc(NC3CCN(C/C(C)=C/c4ccccc4)CC3)c2=O)cc1` [5-7], the results for the IC50 at hα2C receptor, at hα2A receptor and on 5HT-Transporter were 10 nM, 25.1 nM and 631 nM, respectively.
For the compound `C/C(=C\c1ccccc1)CN1CCC(Nc2nccn(Cc3ccccc3)c2=O)CC1` [5-8], the figures for the IC50 at hα2C receptor, at hα2A receptor and at 5HT-Transporter were 50.1 nM, 200 nM and 1580 nM, respectively.
Consider `C/C(=C\c1ccccc1)CN1CCC(Nc2nccn(Cc3ccc(C)cc3)c2=O)CC1` [5-9], for which the IC50 is 50.1 nM at hα2C receptor, 158 nM at hα2A receptor and 1000 nM at 5HT-Transporter.
Take `C/C(=C\c1ccccc1)CN1CCC(Nc2nccn(Cc3ccccc3C)c2=O)CC1` [5-10]: the values for the IC50 at hα2C receptor, at hα2A receptor and at 5HT-Transporter were 25.1 nM, 79.4 nM and 398 nM, respectively.
Taken in the same sequence, the figures for `C/C(=C\c1ccccc1)CN1CCC(Nc2nccn(Cc3ccccc3F)c2=O)CC1` [5-11] were 31.6 nM, 158 nM and 501 nM.
Turning to `C/C(=C\c1ccccc1)CN1CCC(Nc2nccn(Cc3cccc(F)c3)c2=O)CC1` [5-12], the IC50 at hα2C receptor is 25.1 nM; on hα2A receptor, 100 nM; on 5HT-Transporter, 501 nM.
`C/C(=C\c1ccccc1)CN1CCC(Nc2nccn(Cc3ccc(F)cc3)c2=O)CC1` [5-13]: the IC50 on hα2C receptor is 63.1 nM; on hα2A receptor it was 158 nM; at 5HT-Transporter, 1260 nM.
With `C/C(=C\c1ccccc1)CN1CCC(Nc2nccn(Cc3ccccc3Br)c2=O)CC1` [5-14], the IC50 was 12.6 nM on hα2C receptor, 50.1 nM on hα2A receptor and 200 nM on 5HT-Transporter.
As for `C/C(=C\c1ccccc1)CN1CCC(Nc2nccn(Cc3cccc(Br)c3)c2=O)CC1` [5-15], the IC50 at hα2C receptor is 25.1 nM; at hα2A receptor, 79.4 nM; at 5HT-Transporter, 398 nM.
For `C/C(=C\c1ccccc1)CN1CCC(Nc2nccn(Cc3ccc(Br)cc3)c2=O)CC1` [5-16], in that order: 50.1 nM, 126 nM and 501 nM.
For the compound `C/C(=C\c1ccccc1)CN1CCC(Nc2nccn(Cc3ccccc3Cl)c2=O)CC1` [5-17], the results for the IC50 at hα2C receptor, on hα2A receptor and at 5HT-Transporter were 20 nM, 63.1 nM and 251 nM, respectively.
For `C/C(=C\c1ccccc1)CN1CCC(Nc2nccn(Cc3cccc(Cl)c3)c2=O)CC1` [5-18], the values for the IC50 on hα2C receptor, on hα2A receptor and at 5HT-Transporter were 39.8 nM, 126 nM and 631 nM, respectively.
For `C/C(=C\c1ccccc1)CN1CCC(Nc2nccn(Cc3ccccc3C#N)c2=O)CC1` [5-19], the IC50 on hα2C receptor is 20 nM; at hα2A receptor it was 100 nM; on 5HT-Transporter, 398 nM.
`C/C(=C\c1ccccc1)CN1CCC(Nc2nccn(Cc3ccc(C#N)cc3)c2=O)CC1` [5-20]: the IC50 at hα2C receptor is 100 nM; at hα2A receptor it was 501 nM; on 5HT-Transporter, 5010 nM.
For `C/C(=C\c1ccccc1)CN1CCC(Nc2nccn(Cc3ccccc3C(F)(F)F)c2=O)CC1` [5-21], the figures for the IC50 at hα2C receptor, on hα2A receptor and at 5HT-Transporter were 25.1 nM, 158 nM and 398 nM, respectively.
For `C/C(=C\c1ccccc1)CN1CCC(Nc2nccn(Cc3cccc(C(F)(F)F)c3)c2=O)CC1` [5-22], in that order: 50.1 nM, 126 nM and 794 nM.
For `C/C(=C\c1ccccc1)CN1CCC(Nc2nccn(Cc3ccc(C(F)(F)F)cc3)c2=O)CC1` [5-23], in that order: 79.4 nM, 200 nM and 794 nM.
Regarding `C/C(=C\c1ccccc1)CN1CCC(Nc2nccn(Cc3ccc(S(C)(=O)=O)cc3)c2=O)CC1` [5-26], the IC50 at hα2C receptor is 25.1 nM; on hα2A receptor, 126 nM; on 5HT-Transporter, 1260 nM.
Regarding `C/C(=C\c1ccccc1)CN1CCC(Nc2nccn(CCc3ccccc3)c2=O)CC1` [5-27], the results for the IC50 on hα2C receptor, on hα2A receptor and at 5HT-Transporter were 15.8 nM, 100 nM and 398 nM, respectively.
As for `C/C(=C\c1ccccc1)CN1CCC(Nc2nccn(C/C=C/c3ccccc3)c2=O)CC1` [5-28], the IC50 is 63.1 nM at hα2C receptor, 158 nM at hα2A receptor and 501 nM at 5HT-Transporter.
Consider `C/C(=C\c1ccccc1)CN1CCC(Nc2nccn(CC(=O)c3ccccc3)c2=O)CC1` [5-29], for which the IC50 at hα2C receptor is 10 nM; at hα2A receptor, 15.8 nM; at 5HT-Transporter, 794 nM.
For `C/C(=C\c1ccccc1)CN1CCC(Nc2nccn(-c3ccc(-c4ccccc4)cc3)c2=O)CC1` [5-30], in that order: 7.94 nM, 25.1 nM and 398 nM.
Consider `C/C(=C\c1ccccc1)CN1CCC(Nc2nccn(Cc3ccccc3-c3ccccc3)c2=O)CC1` [5-31], for which the IC50 was 20 nM on hα2C receptor, 100 nM on hα2A receptor and 200 nM at 5HT-Transporter.
Regarding `C/C(=C\c1ccccc1)CN1CCC(Nc2nccn(Cc3ccc(-c4ccccc4)cc3)c2=O)CC1` [5-32], the IC50 on hα2C receptor is 126 nM; at hα2A receptor, 316 nM; at 5HT-Transporter, 316 nM.
For `C/C(=C\c1ccccc1)CN1CCC(Nc2nccn(CC(=O)c3cccc(-c4ccccc4)c3)c2=O)CC1` [5-33], the IC50 at hα2C receptor is 100 nM; at hα2A receptor it was 79.4 nM; on 5HT-Transporter, 1260 nM.
In the case of `C/C(=C\c1ccccc1)CN1CCC(Nc2nccn(Cc3cccc4ccccc34)c2=O)CC1` [5-34], the IC50 at hα2C receptor was 25.1 nM; on hα2A receptor it was 100 nM; at 5HT-Transporter, 398 nM.
As for `C/C(=C\c1ccccc1)CN1CCC(Nc2nccn(Cc3ccc4ccccc4c3)c2=O)CC1` [5-35], the IC50 on hα2C receptor was 39.8 nM; on hα2A receptor, 63.1 nM; at 5HT-Transporter it was 398 nM.
For `C/C(=C\c1ccccc1)CN1CCC(Nc2nccn(CC3CCCCO3)c2=O)CC1` (stereo not drawn) [6-1], the values for the IC50 at hα2C receptor, on hα2A receptor and on 5HT-Transporter were 20 nM, 126 nM and 1000 nM, respectively.
Take `C/C(=C\c1ccccc1)CN1CCC(Nc2nccn(Cc3ccco3)c2=O)CC1` [6-2]: the IC50 is 25.1 nM on hα2C receptor, 126 nM at hα2A receptor and 1260 nM on 5HT-Transporter.
In the case of `C/C(=C\c1ccccc1)CN1CCC(Nc2nccn(-c3nccs3)c2=O)CC1` [6-5], the IC50 on hα2C receptor was 7.94 nM; at hα2A receptor, 50.1 nM; at 5HT-Transporter, 316 nM.
Taken in the same sequence, the figures for `C/C(=C\c1ccccc1)CN1CCC(Nc2nccn(Cc3csc(C)n3)c2=O)CC1` [6-6] were 20 nM, 126 nM and 3160 nM.
Take `C/C(=C\c1ccccc1)CN1CCC(Nc2nccn(Cc3csc(C)n3)c2=O)CC1` [6-7]: the IC50 on hα2C receptor is 39.8 nM; at hα2A receptor it was 251 nM; on 5HT-Transporter, 2000 nM.
Regarding `C/C(=C\c1ccccc1)CN1CCC(Nc2nccn(Cc3cnc(C)s3)c2=O)CC1` [6-8], the IC50 was 25.1 nM at hα2C receptor, 158 nM at hα2A receptor and 3980 nM on 5HT-Transporter.
For the compound `C/C(=C\c1ccccc1)CN1CCC(Nc2nccn(-c3cccnc3)c2=O)CC1` [6-11], the IC50 at hα2C receptor is 25.1 nM; on hα2A receptor, 251 nM; at 5HT-Transporter, 3980 nM.
`C/C(=C\c1ccccc1)CN1CCC(Nc2nccn(-c3ccncc3)c2=O)CC1` [6-12]: the IC50 on hα2C receptor is 7.94 nM; on hα2A receptor, 50.1 nM; on 5HT-Transporter, 1580 nM.
In the case of `C/C(=C\c1ccccc1)CN1CCC(Nc2nccn(Cc3ccccn3)c2=O)CC1` [6-13], the IC50 on hα2C receptor was 31.6 nM; on hα2A receptor, 200 nM; on 5HT-Transporter, 3980 nM.
